This note sets out measurements from patent US9758524B2, “4-imidazopyridazin-1-yl-benzamides as Btk inhibitors” (Merck Sharp & Dohme B.V., priority 2011, dated 2017).

Like-named read-outs stand apart in the source and are kept apart here.

The EC50 is the concentration needed to bring the measured effect to its halfway point.

One test has as its target Src enzyme (Homo sapiens (Human), UniProt P12931). Nature of the test: Src enzyme activity (IMAP fluorescence polarization assay). The conditions noted are these: read-out: EC50 Src activity values; IMAP, 60 min pre-incubation, 4 μM ATP.
In the next test the target is Lyn enzyme (Homo sapiens (Human), UniProt P07948). Nature of the test: Lyn enzyme activity (IMAP fluorescence polarization assay). (In general: In fluorescence polarisation assays a small probe gives low polarisation when free and higher when bound to something large.)
The target of a further test is Lck enzyme (Homo sapiens (Human), UniProt P06239). The experiment in a line: Lck enzyme activity (IMAP fluorescence polarization assay).
The next test addresses FynT enzyme (Homo sapiens (Human), UniProt P06241). Nature of the test: FynT enzyme activity (IMAP fluorescence polarization assay). In kind it is biochemical. Particulars: 60 min pre-incubation, 0.2 μM ATP. In outline: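 Human FynT pre-incubated with compounds 60 min at room temperature, then reacted 2 h at room temperature with fluorescein-labelled p34cdc2 peptide (100 nM final). Stopped with IMAP binding solution; fluorescence polarization read after 60 min. Activity as % of ±ATP control difference; EC50 by curve fitting.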

A further test concerns the target Btk enzyme (His-Btk) (Homo sapiens (Human), UniProt Q06187). The experiment in a line: Btk enzyme activity (IMAP fluorescence polarization assay).
[1] abbreviates: read-out: EC50 Lyn activity values, 60 min pre-incubation, 2 μM ATP, bin bound in μM.
The mark [2] stands for this setting: IMAP, 60 min pre-incubation, 6 μM ATP, bin bound in μM.
[3] abbreviates: read-out: EC50 Btk activity values, IMAP, 60 min pre-incubation, 5 μM ATP, bin bound in nM.
[4] abbreviates: read-out: EC50 Lck activity values, IMAP, 60 min pre-incubation, 6 μM ATP, bin bound in μM.
[5] abbreviates: IMAP, 60 min pre-incubation, 5 μM ATP, bin bound in nM.

Chain of FynT enzyme (P06241 other isoform, or with tags, fused parts or gaps): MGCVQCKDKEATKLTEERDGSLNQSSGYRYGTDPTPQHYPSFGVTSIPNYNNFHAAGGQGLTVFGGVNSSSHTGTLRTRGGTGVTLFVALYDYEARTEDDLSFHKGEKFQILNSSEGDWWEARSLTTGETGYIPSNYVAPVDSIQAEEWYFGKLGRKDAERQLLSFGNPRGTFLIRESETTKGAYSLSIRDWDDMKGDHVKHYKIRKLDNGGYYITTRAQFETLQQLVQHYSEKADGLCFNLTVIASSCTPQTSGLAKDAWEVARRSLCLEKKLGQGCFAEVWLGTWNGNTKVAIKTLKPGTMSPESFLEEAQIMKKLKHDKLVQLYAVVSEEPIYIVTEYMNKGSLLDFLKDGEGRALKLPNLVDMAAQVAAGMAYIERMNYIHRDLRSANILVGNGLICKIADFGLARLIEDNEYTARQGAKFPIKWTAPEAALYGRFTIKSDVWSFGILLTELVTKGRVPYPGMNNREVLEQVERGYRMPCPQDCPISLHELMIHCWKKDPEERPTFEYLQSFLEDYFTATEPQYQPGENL
Chain of Lck enzyme (P06239 whole entry): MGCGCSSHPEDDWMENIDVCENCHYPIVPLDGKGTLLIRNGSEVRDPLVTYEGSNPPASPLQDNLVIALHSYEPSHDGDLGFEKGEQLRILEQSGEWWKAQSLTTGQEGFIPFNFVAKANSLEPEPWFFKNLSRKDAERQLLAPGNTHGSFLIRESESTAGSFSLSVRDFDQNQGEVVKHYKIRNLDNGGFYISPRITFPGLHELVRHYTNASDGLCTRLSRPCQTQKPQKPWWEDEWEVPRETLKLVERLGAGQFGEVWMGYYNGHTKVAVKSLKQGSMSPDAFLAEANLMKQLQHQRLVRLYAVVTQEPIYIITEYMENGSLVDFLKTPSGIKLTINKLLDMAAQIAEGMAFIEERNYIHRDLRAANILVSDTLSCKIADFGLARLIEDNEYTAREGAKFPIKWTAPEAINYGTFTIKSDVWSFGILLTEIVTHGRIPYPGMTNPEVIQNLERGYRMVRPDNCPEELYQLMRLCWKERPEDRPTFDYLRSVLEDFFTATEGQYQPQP
Chain of Lyn enzyme (P07948 whole entry): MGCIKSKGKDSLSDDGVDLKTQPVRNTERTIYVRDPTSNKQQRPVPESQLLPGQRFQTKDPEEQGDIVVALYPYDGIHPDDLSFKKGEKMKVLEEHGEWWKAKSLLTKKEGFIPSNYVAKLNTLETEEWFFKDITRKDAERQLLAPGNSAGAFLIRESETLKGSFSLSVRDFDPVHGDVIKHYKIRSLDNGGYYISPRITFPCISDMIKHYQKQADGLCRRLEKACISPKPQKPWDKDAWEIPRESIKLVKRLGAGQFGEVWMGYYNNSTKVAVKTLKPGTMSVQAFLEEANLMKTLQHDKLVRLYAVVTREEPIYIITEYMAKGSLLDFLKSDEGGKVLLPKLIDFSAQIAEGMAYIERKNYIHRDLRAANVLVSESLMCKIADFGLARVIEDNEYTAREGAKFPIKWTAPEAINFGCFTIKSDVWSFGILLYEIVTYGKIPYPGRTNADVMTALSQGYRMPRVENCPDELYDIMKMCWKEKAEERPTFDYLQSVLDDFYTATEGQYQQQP
Chain of Btk enzyme (His-Btk) (Q06187 whole entry): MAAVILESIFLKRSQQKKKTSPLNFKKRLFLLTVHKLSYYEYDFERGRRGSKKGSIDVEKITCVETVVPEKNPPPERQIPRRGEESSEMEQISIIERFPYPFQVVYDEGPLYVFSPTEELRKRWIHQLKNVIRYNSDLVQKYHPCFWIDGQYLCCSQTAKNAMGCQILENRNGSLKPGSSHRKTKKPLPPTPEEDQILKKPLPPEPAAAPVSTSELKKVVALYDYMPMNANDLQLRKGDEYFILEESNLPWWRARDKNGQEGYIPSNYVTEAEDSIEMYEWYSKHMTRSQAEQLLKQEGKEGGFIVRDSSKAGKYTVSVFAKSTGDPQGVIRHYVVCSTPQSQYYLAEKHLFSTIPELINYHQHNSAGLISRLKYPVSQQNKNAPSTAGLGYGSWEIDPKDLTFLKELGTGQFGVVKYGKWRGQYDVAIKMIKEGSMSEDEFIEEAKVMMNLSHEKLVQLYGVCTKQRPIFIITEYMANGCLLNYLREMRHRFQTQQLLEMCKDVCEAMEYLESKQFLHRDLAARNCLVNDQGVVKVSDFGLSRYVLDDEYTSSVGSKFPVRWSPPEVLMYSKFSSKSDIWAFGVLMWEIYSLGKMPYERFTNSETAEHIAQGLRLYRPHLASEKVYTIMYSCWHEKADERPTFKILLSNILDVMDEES
Chain of Src enzyme (P12931 whole entry, looked up): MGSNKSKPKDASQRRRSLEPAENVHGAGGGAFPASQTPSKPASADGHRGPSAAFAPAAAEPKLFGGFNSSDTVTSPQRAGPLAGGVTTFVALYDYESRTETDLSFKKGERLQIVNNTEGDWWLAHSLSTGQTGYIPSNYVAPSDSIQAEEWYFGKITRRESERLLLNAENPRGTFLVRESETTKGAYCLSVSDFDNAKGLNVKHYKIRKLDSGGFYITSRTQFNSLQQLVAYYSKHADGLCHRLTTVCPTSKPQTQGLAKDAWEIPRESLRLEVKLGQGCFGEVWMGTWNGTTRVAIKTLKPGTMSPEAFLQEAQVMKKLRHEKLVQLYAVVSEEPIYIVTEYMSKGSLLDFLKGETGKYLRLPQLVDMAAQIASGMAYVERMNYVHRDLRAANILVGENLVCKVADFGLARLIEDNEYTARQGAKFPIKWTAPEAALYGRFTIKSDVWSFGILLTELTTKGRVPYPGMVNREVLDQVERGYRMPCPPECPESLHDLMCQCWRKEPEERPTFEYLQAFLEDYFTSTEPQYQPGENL

As for `C=CC(=O)N1CCC[C@H]1c1nc(-c2ccc(C(=O)Nc3cc(C#N)ccn3)cc2)c2c(N)nccn12` [Example 122, (S)-4-(3-(1-acryloylpyrrolidin-2-yl)-8-aminoimidazo[1,5-a]pyrazin-1-yl)-N-(4-cyanopyridin-2-yl)benzamide], the concentration for a half-maximal effect (EC50) was no less than 1000 nM on Src enzyme; no less than 1 µM at Lyn enzyme (setting [1]); 0.1 to 1 µM at Lck enzyme; no less than 1000 nM on FynT enzyme; less than 10 nM at Btk enzyme (His-Btk) (setting [3]). Moreover, the “EC50 Lck activity values” on Lck enzyme (setting [2]) was less than 1 µM.

In the case of `CC#CC(=O)NCc1nc(-c2ccc(C(=O)Nc3ccccn3)cc2)c2c(N)nccn12` [Example 112, 4-(8-amino-3-(but-2-ynamidomethyl)imidazo[1,5-a]pyrazin-1-yl)-N-(pyridin-2-yl)benzamide], the EC50 at Src enzyme is no less than 1000 nM; on Lyn enzyme (setting [1]), no less than 1 µM; on Lck enzyme (setting [4]) it was no less than 1 µM; on FynT enzyme, no less than 1000 nM; on Btk enzyme (His-Btk), 10 to 100 nM. The “EC50 Btk activity values” at Btk enzyme (His-Btk) (setting [5]) is less than 100 nM.

As for `C=CC(=O)N1CCCC[C@H]1c1nc(-c2ccc(C(=O)Nc3nccc(C)n3)cc2)c2c(N)nccn12` [Example 21, (S)-4-(3-(1-Acryloylpiperidin-2-yl)-8-aminoimidazo[1,5-a]pyrazin-1-yl)-N-(4-methylpyrimidin-2-yl)benzamide], the EC50 was no less than 1000 nM on Src enzyme; no less than 1 µM at Lyn enzyme (setting [1]); no less than 1 µM at Lck enzyme (setting [4]); no less than 1000 nM on FynT enzyme; less than 10 nM on Btk enzyme (His-Btk) (setting [3]).

In the case of `C=CC(=O)N1CCCC[C@H]1c1nc(-c2ccc(C(=O)Nc3ncccn3)cc2)c2c(N)nccn12` [Example 20, (S)-4-(3-(1-Acryloylpiperidin-2-yl)-8-aminoimidazo[1,5-a]pyrazin-1-yl)-N-(pyrimidin-2-yl)benzamide], the EC50 is no less than 1000 nM on Src enzyme; no less than 1 µM at Lyn enzyme (setting [1]); no less than 1 µM at Lck enzyme (setting [4]); no less than 1000 nM at FynT enzyme; less than 10 nM at Btk enzyme (His-Btk) (setting [3]).

As to `CC(C)c1ccnc(NC(=O)c2ccc(-c3nc([C@@H]4CCCN4C(=O)c4ccnc(Cl)n4)n4ccnc(N)c34)cc2)c1` [Example 70, (S)-4-(8-amino-3-(1-(2-chloropyrimidine-4-carbonyl)pyrrolidin-2-yl)imidazo[1,5-a]pyrazin-1-yl)-N-(4-isopropylpyridin-2-yl)benzamide], the EC50 was no less than 1000 nM on Src enzyme; no less than 1 µM at Lyn enzyme (setting [1]); no less than 1 µM on Lck enzyme (setting [4]); no less than 1000 nM at FynT enzyme; 10 to 100 nM on Btk enzyme (His-Btk). Besides, the “EC50 Btk activity values” on Btk enzyme (His-Btk) (setting [5]) was less than 100 nM.

Turning to `CC#CC(=O)N1CCC[C@H]1c1nc(-c2ccc(C(=O)Nc3cc(C(F)(F)F)ccn3)cc2)c2c(N)nccn12` [Example 10, (S)-4-(8-Amino-3-(1-but-2-ynoylpyrrolidin-2-yl)imidazo[1,5-a]pyrazin-1-yl)-N-(4-(trifluoromethyl)pyridin-2-yl)benzamide], the EC50 was no less than 1000 nM on Src enzyme; no less than 1 µM on Lyn enzyme (setting [1]); no less than 1 µM on Lck enzyme (setting [4]); no less than 1000 nM at FynT enzyme; less than 10 nM at Btk enzyme (His-Btk) (setting [3]).

In the case of `C=CC(=O)N1CCC[C@H]1c1nc(-c2ccc(C(=O)Nc3cc(-c4ccccc4)ccn3)cc2)c2c(N)nccn12` [Example 133, (S)-4-(3-(1-acryloylpyrrolidin-2-yl)-8-aminoimidazo[1,5-a]pyrazin-1-yl)-N-(4-phenylpyridin-2-yl)benzamide], the EC50 at Src enzyme is no less than 1000 nM; on Lyn enzyme (EC50 Lyn activity values, 60 min pre-incubation, 2 μM ATP, bin bound in nM) it was 0.1 to 1 µM; at Lck enzyme it was 0.1 to 1 µM; at FynT enzyme, no less than 1000 nM; on Btk enzyme (His-Btk) (setting [3]), less than 10 nM. On Lyn enzyme (60 min pre-incubation, 2 μM ATP, bin bound in μM), the “EC50 Lyn activity values” is less than 1 µM. In addition, the “EC50 Lck activity values” on Lck enzyme (setting [2]) is less than 1 µM.

Turning to `CC#CC(=O)N1CCC[C@H]1c1nc(-c2ccc(C(=O)Nc3cc(C#N)ccn3)cc2)c2c(N)nccn12` [Example 130, (S)-4-(8-amino-3-(1-but-2-ynoylpyrrolidin-2-yl)imidazo[1,5-a]pyrazin-1-yl)-N-(4-cyanopyridin-2-yl)benzamide], the EC50 was no less than 1000 nM at Src enzyme; no less than 1 µM at Lyn enzyme (setting [1]); no less than 1 µM on Lck enzyme (setting [4]); no less than 1000 nM at FynT enzyme; less than 10 nM at Btk enzyme (His-Btk) (setting [3]).
